Reference: patent US5474988A, “5-phenylpyrrolo-1,4-benzoxazine and 5-phenylpyrrolo-1,4-benzothiazine compounds, process and intermediates for their production and pharmaceutical compositions containing them” (Kali-Chemie Pharma GmbH, priority 1993, dated 1995)

Key:
[1] = system: cutaneous histamine induced anaphylactoid reactions; assay: inhibition of the anaphylactoid cutaneous reaction induced by histamine; format: in vivo, Sprague-Dawley rats; conditions: Rattus norvegicus, po, 0.5 h; 2 × 10^-5 mole/kg p.o., one hour before histamine; assessed 30 minutes after provocation; read-out: Inhibitory action against cutaneous histamine induced anaphylactoid reactions in rats, % inhibition
Protocol: 1. Determination of the inhibition of the anaphylactoid cutaneous reaction induced by histamine.
The inhibition of the anaphylactoid cutaneous reaction induced by histamine was determined in Sprague-Dawley rats having body weights of 150-180 g.
In order to determine the histamine-induced anaphylactoid skin reaction, 50 μl of a physiological saline solution containing 0.8 mg/ml of histamine were injected into the animals intradermally on one flank. Immediately afterward, a solution of 26.4 mg/kg of a blue dye (Evan's Blue) was administered i.v. to the animals.
The test substances were dissolved in distilled water which contains 1% by volume of dimethylformamide and 1% by volume of Tween®20 (=polyoxyethylene(20) sorbitan monolaurate). One hour before the histamine injection, each animal received 2×10^-5 mol/kg of test substance, in each case administered orally in 0.5 ml of solution. A control group received only the solvent for comparison.
The histamine-induced anaphylactoid reactions which manifested themselves by edema formation, swelling and exudation of blue dye are assessed 30 minutes after provocation by the histamine injection. This is carried out by visual determination of the extent of the exudation of blue dye at the sites of edema formation. With the aid of comparison scales, the percentage inhibition of the anaphylactoid reactions produced by the test substances is determined in comparison with the reactions of the control animals not treated with test substance.
The results obtained with compounds of the formula I by the above test method are reproduced in the following table A. The example numbers given as identifiers for the compounds of formula I refer to the subsequent preparative examples.

[2] = system: P.A.F.-induced aggregation of blood platelets; assay: anti-P.A.F. action in vitro (P.A.F.-induced platelet aggregation); format: cell-based; conditions: Oryctolagus cuniculus, 10^-5 mole/liter, read-out: Anti-P.A.F. activity in vitro, % inhibition of the P.A.F.-induced aggregation of blood platelets from rabbit blood
Outline: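 Washed rabbit platelets (4×10^9/ml stock suspension, aspirin-lysine treated) in modified Tyrode buffer pH 7.4 with 1.3 mM CaCl2 and gelatine; test substance at 10^-5 mol/l final, 90 s preincubation before P.A.F. Aggregation followed 4-5 min by aggregometer; % inhibition of P.A.F.-induced aggregation increase calculated.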

male mice = conditions: mouse, in vivo, po, 1440 min
Protocol: 2. Determination of the minimum toxic dose.
Maximum doses of 300 mg/kg of the test substance were administered orally to male mice each weighing 20-25 g. The animals were carefully observed for symptoms of toxicity for 3 hours. All symptoms and deaths were additionally recorded over a period of 24 hours after administration. Associated symptoms were likewise observed and recorded. If death or severely toxic symptoms were observed, increasingly lower doses were administered to further mice. The lowest dose which caused death or severely toxic symptoms is indicated as the minimum toxic dose in the following Table B: […]

5-lipoxygenase = assay: inhibition of 5-lipoxygenase activity in polymorphonuclear rat leucocytes (LTB4 formation); format: cell-based; conditions: 10^-5 mol/l; 22° C.
Outline: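 Thioglycolate-elicited peritoneal PMNs from male Sprague-Dawley rats (0.5×10^6 cells) preincubated 15 min at 22 °C with 10 μM compound in HEPES-buffered HBSS, then stimulated with 5 μM calcimycin for 10 min. LTB4 quantified by reverse-phase HPLC at 270 nm; % inhibition versus solvent control.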

Q: What does the source list for `Cc1ccnc(N2CCN(CCC3Cn4c(-c5ccc(O)cc5)c(C)c5c(Cl)ccc(c54)O3)CC2)c1` (stereo not shown) [Example 19]?
A: inhibition in vivo at 20 µmol/kg [1]: 45%; inhibition at 10 µM [2]: 71%; Minimum toxic dose (male mice): > 300 mg/kg; In vitro inhibitory activity on LTB4 formation in rat PMNs stimulated by calcium ionophore A23187 (5-lipoxygenase): 45%
